# Test results published in PubChem BioAssay (NCI).
#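 These data come from cells grown in 96-well plates and exposed to compound for 48 hours at five concentrations. GI50 marks 50% less growth. Definition used: TGI = concentration required for complete inhibition of growth.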
# Columns and labels:
# Assay in all cases: growth of human tumour cells (NCI), 48 h
# [1] = tested on: KM20L2 colon
# [2] = tested on: M19-MEL melanoma
# [3] = tested on: XF 498 CNS
# [4] = tested on: SNB-78 CNS
# [5] = tested on: DLD-1 colon
# [6] = tested on: DMS 273 small cell lung
# [7] = tested on: DMS 114 small cell lung
# [8] = tested on: LXFL 529 NSCLC
# [9] = tested on: SF-268 CNS
# [10] = tested on: KM12 colon
# [11] = tested on: HOP-18 NSCLC
# [12] = tested on: HS 578T breast
# [13] = tested on: PC-3 prostate
# [14] = tested on: NCI/ADR-RES ovarian
SMILES,TGI [1] [µM],TGI [2] [µM],TGI [3] [µM],TGI [4] [µM],TGI [5] [µM],TGI [6] [µM],TGI [7] [µM],TGI [8] [µM],TGI [9] [µM],TGI [10] [µM],TGI [11] [µM],TGI [12] [µM],TGI [13] [µM],TGI [14] [µM],GI50 [1] [µM],GI50 [7] [µM],GI50 [9] [µM]
CC1OC(n2ccc3ccc([N+](=O)[O-])cc32)C(O)C(O)C1O (stereo not given),> 100,> 100,> 100,> 100,> 100,> 100,> 100,> 100,> 100,> 100,,,,,,,
COc1ccc(/C=C2\C(=O)Nc3ccccc32)cc1OC,> 100,,> 100,> 100,,> 100,,> 100,> 100,> 100,> 100,,,,,,
O=C(CSc1nc(-c2ccccc2)c(-c2ccccc2)[nH]1)N/N=C/c1ccc([N+](=O)[O-])cc1,23.2,30.8,28,62.5,38.5,27.9,55.8,38.3,39.2,31.6,,,,,,,
Nc1c2ccccc2nc2nccnc12,> 100,> 100,> 100,> 100,> 100,> 100,> 100,,> 100,> 100,> 100,,,,,,
N#CC(NNC(=O)Cc1ccccc1)c1ccc(O)cc1 (stereo not given),,> 100,,,> 100,> 100,> 100,> 100,> 100,> 100,> 100,,,,,,
CC1=N/C(=C\c2ccc(N)cc2)C(=O)N1Nc1nnc(NN2C(=O)/C(=C/c3ccc(N)cc3)N=C2C)c2ccccc12,> 100,> 100,,,> 100,> 100,,> 100,> 100,81.5,> 100,,,,,,
O=C1CCN(CCC(F)(F)C(F)(F)C(F)(F)C(F)(F)F)C(=S)N1,> 100,> 100,> 100,> 100,,> 100,> 100,> 100,> 100,> 100,,,,,,,
CNc1cccc(-c2cc(=O)c3cc4c(cc3[nH]2)OCO4)c1,,> 100,> 100,> 100,0.969,16.9,7.84,> 100,> 100,> 24.7,> 100,8.96,> 100,0.568,,,
CCc1nc2c(n1CC)C(=O)c1ccccc1C2=O,,,,,,,,,> 100,> 100,,> 100,63.7,> 100,,,
CN1CCN(Cn2nc(-c3ccccc3)n(/N=C/c3ccc(-c4ccc(Cl)cc4Cl)o3)c2=S)CC1,,,,,,,,,26.2,41.3,,> 100,22,56.2,,,
COc1cc(Br)cc2c1O[C@H]1C(=O)CC3CC21CCN3C (stereo not given in full),,,,,,,,,> 100,> 100,,> 100,> 100,> 100,,,
COc1cc(S(=O)(=O)Nc2ccc(-c3csc(/N=C\c4ccccc4O)n3)cc2)ccc1Cl,,,,,,,,,> 100,> 100,,> 100,> 100,> 100,,,
COc1ccc(-c2cc(=O)c3cc4c(cc3[nH]2)OCO4)c(OC)c1,> 100,> 100,97.9,> 100,> 100,> 100,87.3,> 100,> 100,> 100,> 100,,,,42.7,26.1,62.6
CC[C@H](C)[C@H](NC(=O)[C@H](Cc1ccc(O)cc1)NCC(F)(F)F)C(=O)OC(C)(C)C,,,,,,,,,24.6,18.7,,31.5,14.1,50,,,
CNC(=O)Nn1c(SC)nc2ccccc21,,,,,,,,,> 100,> 100,,> 100,> 100,> 100,,,
N[C@@H]1c2c(Br)sc(Br)c2C(=O)[C@H]1Br,,,,,,,,,> 100,> 61.5,,> 100,> 84.8,53.8,,,
